These results are taken from patent US7371407B2, “Use of Emu Oil and its various fractions as a carrier for antifungal, antibacterial, and antiviral medications and preparations” (Ganeden Biotech, Inc., priority 1999, dated 2008).

One data set has as its system Trichophyton species. As to the kind of experiment: In vitro inhibition assay on potato-dextrose plates, fungal pathogens. It is filed as cell-based. Particulars: positive control, 18 hr at 30° C. The protocol:
In the assay, potato-dextrose plates (DIFCO®, Detroit, Mich.) were prepared using standard procedures and were inoculated individually with a confluent bed (about 1.7×10^6) of various species of the fungus Trichophyton. The tested fungal strains of Trichophyton species (available from the American Type Culture Collection (ATCC; Rockville, Md.)) and their ATCC accession numbers, as well as the results of in vitro inhibition by Bacillus coagulans are illustrated in FIG. 4.
Inhibition by Bacillus coagulans was ascertained by placing on the plate approximately 1.5×10^6 colony forming units (CFU) in 10 μl of broth or buffer, plated directly in the center of the potato-dextrose plate, with one test locus per plate. The size of each test locus was approximately 8 mm in diameter and a minimum of three tests were performed for each inhibition assay. The negative control consisted of a […] of sterile saline solution, whereas the positive control consisted of a […] 2% Miconazole (1-[2-(2,4-dichlorophenyl)-2-[(2,4-dichlorophenyl)methoxylmethyl-1,11-imidazole within an inert cream.
The plates were then incubated for approximately 18 hr at 30° C., at which time the zones of inhibition were measured. […]

The test system of a further data set is four species of Candida. Kind of data set: In vitro inhibition assay on potato-dextrose plates, yeast pathogens. The data set is classed as cell-based. Particulars: positive control, 18 hr at 30° C. The protocol: Each of the yeast pathogens and their ATCC accession numbers are illustrated in FIG. 5.
In the in vitro inhibition assay, potato-dextrose plates (DIFCO®, Detroit, Mich.) were prepared using standard procedures and were inoculated individually with a confluent bed about 1.7×10^6 of the four species of Candida. Inhibition by Bacillus coagulans was tested by placing on the plate about 1.5×10^6 colony forming units (CFU) in 10 μl of broth or buffer, plated directly in the center of the potato-dextrose plate with one test locus of about 8 mm in diameter per plate. A minimum of three tests were performed for each inhibition assay. The negative control consisted of a 10 μl volume of a sterile saline solution, whereas the positive control consisted of a 1 μl volume of Miconazole cream.
The plates were then incubated for approximately 18 hr at 30° C., at which time the zones of inhibition were measured. As designated herein, “excellent inhibition” means the zone was 10 mm or greater in diameter; and “good inhibition” means the zone was greater than 2 mm in diameter, but less than 10 mm in diameter.

The conditions of data set [1]: topically-administered without dermal-penetrants; cited from earlier work.
Data set [2] has as its system opportunistic bacterial pathogens. Kind of data set: In vitro bacterial pathogen screen (DIFCO BACTROL Disk Set) on potato-dextrose plates. The data set is classed as cell-based. Particulars: positive control, 18 hr at 30° C. From the text:
The ability of Bacillus coagulans to inhibit various opportunistic bacterial pathogens was quantitatively ascertained by use of an in vitro assay. This assay is part of a standardized bacterial pathogen screen (developed by the U.S. Food and Drug Administration(FDA)) and is commercially available on solid support disks (DIFCO® BACTROL® Disk Set). To perform the assay, potato-dextrose plates (DIFCO®) were initially prepared using standard procedures. The plates were then individually inoculated with each of the bacteria (approximately 1.5×10^6 CFU) to be tested, so as to form a confluent bacterial bed.
Inhibition by Bacillus coagulans was subsequently ascertained by placing approximately 1.5×10^6 CFU of Bacillus coagulans in 10 μl of broth or buffer, directly in the center of the potato-dextrose plate, with one test locus being approximately 8 mm in diameter per plate. A minimum of three test loci were used for each assay. The negative control consisted of a 10 μl volume of a sterile saline solution, whereas the positive control consisted of a 10 μl volume of glutaraldehyde. The plates were then incubated for approximately about 18 hr at 30° C., at which time the zones of inhibition were measured. […]

Consider `Clc1ccc(COC(Cn2ccnc2)c2ccc(Cl)cc2Cl)c(Cl)c1` (stereo not shown) [Miconazole], for which the “zone of inhibition, diameter” value is listed as “approximately 8.5 mm” in the data set with Trichophyton species (2% in inert cream, mean average of three tests) and “approximately 8.7 mm” with four species of Candida (cream, average of three tests). The inhibition class result in the data set on Trichophyton species is “good (“good inhibition” means the zone was greater than 2 mm in diameter, but less than 10 mm in diameter)”; in the data set with four species of Candida, “good (“good inhibition” means the zone was greater than 2 mm in diameter, but less than 10 mm in diameter)”.

For `CC(C(=O)O)c1cccc(C(=O)c2ccccc2)c1` (stereo not shown) [Ketoprofen], the “adsorption through viable, keritinized dermal tissue” value in data set [1] is listed as “very limited concentration, if at all”.

Turning to `O=CCCCC=O` [glutaraldehyde], the “zone of inhibition, diameter” value in data set [2] (10 μl, average of three tests) was “approximately 16.2 mm”. For the same molecule, in data set [2], the inhibition class entry was “excellent (“excellent inhibition” means the zone was 10 mm or greater in diameter)”.
